Experimental data: patent US20210038607A1, “OXADIAZOLYLTHIOPHENE DERIVATIVES USEFUL AS HISTONE DEACETYLASE INHIBITORS” (Karus Therapeutics Limited, priority 2018, published 2021)
Each block holds one compound with its values, some of them ahead of it.

Columns and labels:
[1] = target: T1, Human HDAC4 (Homo sapiens, UniProt P56524); experiment: HDAC4 biochemical assay, class IIa-specific substrate; conditions: read-out: HDAC Isoform IC50 (nM) 4
T1 construct: amino acids 627-1085 with N-terminal GST tag; GST (N); host or cells: baculovirus expression system
Method in brief: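 Two-step fluorogenic read-out: deacetylated BOC-Lys(trifluoroacetyl)-AMC (50 μM) was digested by developer and measured at Ex/Em 360/460. Deacetylation by 0.004 ng/ul HDAC4 (aa 627-1085, N-terminal GST) ran 30 min at room temperature, pH 8.0 Tris buffer, 1 mg/mL BSA, 1% DMSO.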

[2] = target: T2, Human HDAC7 (Homo sapiens, UniProt Q8WUI4); experiment: HDAC7 biochemical assay, class IIa-specific substrate; conditions: read-out: HDAC Isoform IC50 (nM) 7
T2 construct: (a.a. 518-end) with N-terminal GST tag; GST (N); host or cells: baculovirus expression system
T2 sequence (Q8WUI4 518-952 limits assumed): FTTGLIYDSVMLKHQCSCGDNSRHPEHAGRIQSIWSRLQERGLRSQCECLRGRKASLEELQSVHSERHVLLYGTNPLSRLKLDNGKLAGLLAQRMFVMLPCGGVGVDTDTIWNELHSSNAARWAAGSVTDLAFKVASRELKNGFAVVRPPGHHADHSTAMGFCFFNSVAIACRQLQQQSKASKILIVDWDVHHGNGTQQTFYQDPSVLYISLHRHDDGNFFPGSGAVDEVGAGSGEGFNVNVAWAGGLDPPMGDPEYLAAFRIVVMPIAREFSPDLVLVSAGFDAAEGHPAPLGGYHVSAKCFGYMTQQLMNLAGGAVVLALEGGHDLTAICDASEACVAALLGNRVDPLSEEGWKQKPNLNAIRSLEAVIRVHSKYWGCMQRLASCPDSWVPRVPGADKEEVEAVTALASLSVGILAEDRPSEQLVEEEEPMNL
Method in brief: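 Two-step fluorogenic readout: class IIa-selective trifluoroacetyl-lysine AMC substrate (50 μM) deacetylated by N-terminal GST-HDAC7 fragment (0.001 ng/ul), then digested by developer, Ex/Em 360/460. Reaction: 30 min, room temperature, Tris-HCl pH 8.0, NaCl/KCl/MgCl2, 1 mg/mL BSA, 1% DMSO.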

[3] = target: T3, Human HDAC9 (Homo sapiens, UniProt Q9UKV0); experiment: HDAC9 biochemical assay, class IIa-specific substrate; conditions: read-out: HDAC Isoform IC50 (nM) 9
T3 construct: amino acids 604-1066 with C-terminal His tag; His (C); host or cells: baculovirus expression system
Method in brief: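 HDAC9 residues 604-1066 (C-terminal His tag, baculovirus-expressed) at 0.06 ng/ul with 50 μM class IIa substrate Boc-Lys(trifluoroacetyl)-AMC in Tris-HCl pH 8.0 buffer with BSA and 1% DMSO. 30 min at room temperature, then developer added; fluorescence read at 360/460 nm Ex/Em.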

[4] = target: T4, Complex of human HDAC3 and human NCOR2 (Homo sapiens, UniProt O15379); experiment: HDAC3 biochemical assay, AMC-labeled peptide substrate; conditions: read-out: HDAC Isoform IC50 (nM) 3
T4 construct: full length with C-terminal His tag, MW=49.7 kDa; His (C); host or cells: baculovirus expression system (co-expressed)
Method in brief: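 Two-stage fluorogenic read: compounds incubated 1 h at 30° C with 50 μM RHKK(Ac)AMC and 0.1 ng/ul HDAC3–NCOR2(395-489) complex (Tris pH8.0, NaCl, KCl, MgCl2, BSA, 1% DMSO). Developer digestion of deacetylated product gives signal at Ex 360/Em 460.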

[5] = target: T5, Human HDAC10 (Homo sapiens, UniProt Q969S8); experiment: HDAC10 biochemical assay, AMC-labeled peptide substrate; conditions: read-out: HDAC Isoform IC50 (nM) 10
T5 construct: Human HDAC10 (a.a. 1-481); GST (N); His (C); host or cells: baculovirus expression system
T5 sequence (Q969S8 1-481): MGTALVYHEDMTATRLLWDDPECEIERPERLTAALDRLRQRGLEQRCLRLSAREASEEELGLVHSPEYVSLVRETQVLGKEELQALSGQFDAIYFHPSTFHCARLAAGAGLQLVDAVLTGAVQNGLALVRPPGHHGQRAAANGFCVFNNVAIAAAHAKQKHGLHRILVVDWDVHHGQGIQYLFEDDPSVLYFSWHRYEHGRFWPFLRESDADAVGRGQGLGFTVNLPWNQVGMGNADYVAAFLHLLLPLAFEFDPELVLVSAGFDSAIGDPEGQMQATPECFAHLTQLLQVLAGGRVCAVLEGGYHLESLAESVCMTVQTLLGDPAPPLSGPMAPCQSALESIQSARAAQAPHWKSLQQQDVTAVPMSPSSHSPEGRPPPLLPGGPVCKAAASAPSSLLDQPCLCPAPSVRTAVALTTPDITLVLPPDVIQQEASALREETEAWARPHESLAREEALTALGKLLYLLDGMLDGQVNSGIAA
Method in brief: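 Two-step fluorogenic read-out (Ex/Em 360/460) after developer digestion of deacetylated RHKK(Ac)AMC (50 μM). Deacetylation ran 2 h at 30 °C with 12 ng/ul HDAC10 (aa 1-481, GST/His tags, baculovirus) in Tris-HCl pH 8.0, BSA, 1% DMSO.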

T4 sequence (O15379 whole entry, canonical isoform): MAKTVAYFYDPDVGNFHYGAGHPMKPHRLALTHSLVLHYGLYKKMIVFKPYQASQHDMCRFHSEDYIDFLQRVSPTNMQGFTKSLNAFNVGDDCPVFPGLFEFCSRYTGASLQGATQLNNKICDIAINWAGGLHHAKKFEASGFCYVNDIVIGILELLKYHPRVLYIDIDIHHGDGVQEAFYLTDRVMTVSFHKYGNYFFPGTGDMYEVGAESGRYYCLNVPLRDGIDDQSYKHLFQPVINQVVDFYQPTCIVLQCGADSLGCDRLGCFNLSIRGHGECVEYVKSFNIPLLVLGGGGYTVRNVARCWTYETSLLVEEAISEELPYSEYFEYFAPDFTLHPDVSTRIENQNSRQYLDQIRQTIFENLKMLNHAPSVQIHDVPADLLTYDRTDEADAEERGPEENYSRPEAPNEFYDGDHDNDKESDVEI
T4 sequence (Q9Y618 395-489 partner limits assumed): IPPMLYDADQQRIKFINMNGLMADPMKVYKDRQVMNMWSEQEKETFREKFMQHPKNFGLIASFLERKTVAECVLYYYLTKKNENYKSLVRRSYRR
T3 sequence (Q9UKV0 604-1066 isoform Q9UKV0-5): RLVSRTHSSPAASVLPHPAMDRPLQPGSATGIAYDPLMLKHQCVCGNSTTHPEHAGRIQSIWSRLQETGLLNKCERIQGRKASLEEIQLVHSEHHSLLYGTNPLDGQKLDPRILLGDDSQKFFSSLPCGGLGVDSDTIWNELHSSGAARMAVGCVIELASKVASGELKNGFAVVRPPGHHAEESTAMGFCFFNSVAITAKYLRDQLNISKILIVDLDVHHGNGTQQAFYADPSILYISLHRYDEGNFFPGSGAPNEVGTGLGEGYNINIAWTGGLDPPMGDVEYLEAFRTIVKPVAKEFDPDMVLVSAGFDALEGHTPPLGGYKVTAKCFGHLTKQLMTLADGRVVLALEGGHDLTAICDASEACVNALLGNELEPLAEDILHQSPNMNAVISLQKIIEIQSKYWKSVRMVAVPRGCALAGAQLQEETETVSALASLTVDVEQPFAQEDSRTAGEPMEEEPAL
T1 sequence (P56524 627-1084 limits assumed): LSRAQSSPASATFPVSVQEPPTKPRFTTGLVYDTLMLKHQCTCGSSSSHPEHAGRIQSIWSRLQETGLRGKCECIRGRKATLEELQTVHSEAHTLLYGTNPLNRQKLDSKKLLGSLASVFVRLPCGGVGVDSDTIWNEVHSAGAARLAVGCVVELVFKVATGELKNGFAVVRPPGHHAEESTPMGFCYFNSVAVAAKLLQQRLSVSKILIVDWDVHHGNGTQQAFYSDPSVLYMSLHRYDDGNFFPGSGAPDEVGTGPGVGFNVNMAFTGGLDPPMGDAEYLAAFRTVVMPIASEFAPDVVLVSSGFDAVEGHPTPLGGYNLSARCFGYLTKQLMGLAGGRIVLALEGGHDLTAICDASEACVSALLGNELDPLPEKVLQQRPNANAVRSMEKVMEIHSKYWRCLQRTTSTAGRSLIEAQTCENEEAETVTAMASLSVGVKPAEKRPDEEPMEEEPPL

Structure (SMILES): CS(=O)(=O)c1nccc(N(Cc2ccc(-c3noc(C(F)(F)F)n3)s2)c2cnccn2)n1 [Example CE, 2-Methanesulfonyl-N-(pyrazin-2-yl)-N-({5-[5-(trifluoromethyl)-1,2,4-oxadiazol-3-yl]thiophen-2-yl}methyl)pyrimidin-4-amine]
IC50 [1]: ≤ 10000 nM
IC50 [2]: ≤ 1000 nM
IC50 [3]: ≤ 10000 nM

Structure (SMILES): FC(F)(F)c1nc(-c2ccc(CN(c3ccncn3)c3cnccn3)s2)no1 [Example BZ, N-(Pyrazin-2-yl)-N-({5-[5-(trifluoromethyl)-1,2,4-oxadiazol-3-yl]thiophen-2-yl}methyl)pyrimidin-4-amine]
IC50 [4]: > 10000 nM
IC50 [1]: ≤ 500 nM
IC50 [2]: ≤ 500 nM
IC50 [3]: ≤ 500 nM
IC50 [5]: > 10000 nM

Structure (SMILES): CS(=O)(=O)c1ccc(N(Cc2ccc(-c3noc(C(F)(F)F)n3)s2)c2cnccn2)nn1 [Example DL, 6-Methanesulfonyl-N-(pyrazin-2-yl)-N-({5-[5-(trifluoromethyl)-1,2,4-oxadiazol-3-yl]thiophen-2-yl}methyl)pyridazin-3-amine]
IC50 [4]: > 10000 nM
IC50 [1]: ≤ 500 nM
IC50 [2]: ≤ 1000 nM
IC50 [3]: ≤ 10000 nM
IC50 [5]: > 10000 nM

Structure (SMILES): FC(F)(F)c1nc(-c2ccc(CN(c3cncnc3)c3cnccn3)s2)no1 [Example CR, N-(Pyrazin-2-yl)-N-({5-[5-(trifluoromethyl)-1,2,4-oxadiazol-3-yl]thiophen-2-yl}methyl)pyrimidin-5-amine]
IC50 [4]: > 10000 nM
IC50 [1]: ≤ 500 nM
IC50 [2]: ≤ 500 nM
IC50 [3]: ≤ 500 nM
IC50 [5]: > 10000 nM

Next, values leading:

IC50 [4]: ≤ 10000 nM
IC50 [1]: ≤ 1000 nM
IC50 [2]: ≤ 10000 nM
IC50 [3]: ≤ 10000 nM
IC50 [5]: > 10000 nM
Structure (SMILES): FC(F)(F)c1ccc(N(Cc2ccc(-c3noc(C(F)(F)F)n3)s2)c2cnccn2)nn1 [Example DH, N-(Pyrazin-2-yl)-6-(trifluoromethyl)-N-({5-[5-(trifluoromethyl)-1,2,4-oxadiazol-3-yl]thiophen-2-yl}methyl)pyridazin-3-amine]

IC50 [4]: > 10000 nM
IC50 [1]: ≤ 10000 nM
IC50 [2]: ≤ 10000 nM
IC50 [3]: ≤ 10000 nM
IC50 [5]: > 10000 nM
Structure (SMILES): FC(F)(F)c1nc(-c2ccc(CN(c3ccccn3)c3cnccn3)s2)no1 [Example V, N-(Pyridin-2-yl)-N-({5-[5-(trifluoromethyl)-1,2,4-oxadiazol-3-yl]thiophen-2-yl}methyl)pyrazin-2-amine]

IC50 [4]: ≤ 10000 nM
IC50 [1]: ≤ 1000 nM
IC50 [2]: ≤ 1000 nM
IC50 [3]: ≤ 10000 nM
IC50 [5]: > 10000 nM
Structure (SMILES): FC(F)(F)c1nc(-c2ccc(CN(c3cnccn3)c3ccc(N4CCCC4)nn3)s2)no1 [Example DI, N-(Pyrazin-2-yl)-6-(pyrrolidin-1-yl)-N-({5-[5-(trifluoromethyl)-1,2,4-oxadiazol-3-yl]thiophen-2-yl}methyl)pyridazin-3-amine]
